Experiment [1] concerns the target T1, oxytocin receptors (Rattus norvegicus, UniProt P70536).
T1 construct: The uteri are dissected out, cleaned of fat and connective tissues; from tissue; host or cells: uteri of DES-treated female Sprague-Dawley rats
T1 sequence (P70536 1-388): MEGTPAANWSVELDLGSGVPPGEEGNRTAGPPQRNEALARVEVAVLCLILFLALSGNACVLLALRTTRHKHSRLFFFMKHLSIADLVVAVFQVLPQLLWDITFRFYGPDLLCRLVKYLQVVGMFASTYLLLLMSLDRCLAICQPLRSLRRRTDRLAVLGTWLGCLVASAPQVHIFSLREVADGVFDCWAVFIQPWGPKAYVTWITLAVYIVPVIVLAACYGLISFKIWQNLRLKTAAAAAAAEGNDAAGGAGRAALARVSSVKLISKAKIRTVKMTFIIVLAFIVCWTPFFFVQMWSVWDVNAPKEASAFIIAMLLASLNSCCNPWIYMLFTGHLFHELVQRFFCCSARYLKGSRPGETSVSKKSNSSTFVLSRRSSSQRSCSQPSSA
As to the kind of experiment: Oxytocin Receptor Binding. The settings on record: for IC50: 1.0 nM [3H]OT. Also on record: species or system rat (female Sprague-Dawley). The procedure: Oxytocin Receptor Binding
Female Sprague-Dawley rats weighing approximately 200-250 g are injected intramuscularly (i.m.) with 0.3 mg/kg of body weight of diethylstilbestrol (DES). The rats are sacrificed 18 hours later under pentobarbital anesthesia. The uteri are dissected out, cleaned of fat and connective tissues and rinsed in 50 ml of normal saline. The tissue pooled from six rats is homogenized in 50 ml of […] Tris.HCl, containing 0.5 mM dithiothreitol and 1.0 mM EDTA, adjusted to pH 7.4, using a polytron at setting 6 with three passes of 10 sec each. The homogenate is passed through two (2) layers of cheesecloth and the filtrate centrifuged at 1000× g for 10 min. The clear supernatant is removed and recentrifuged at 165,000× g for 30 min. The resulting pellet containing the oxytocin receptors is resuspended in 50.0 mM Tris.HCl containing 5.0 mM MgCl2 at pH 7.4, to give a protein concentration of 2.5 mg/ml of tissue suspension. This preparation is used in subsequent binding assays with [^3 H]Oxytocin.
Binding of 3,5-[^3 H]Oxytocin ([^3 H]OT) to its receptors is done in microtiter plates using [^3 H]OT, at various concentrations, in an assay buffer of 50.0 mM Tris.HCl, pH 7.4 and containing 5.0 mM MgCl2, and a mixture of protease inhibitors: BSA, 0.1 mg; aprotinin, 1.0 mg; 1,10-phenanthroline, 2.0 mg; […], 10.0 mg; and PMSF, 0.3 mg per 100 ml of buffer solution. Non-specific binding is determined in the presence of 1.0 uM unlabeled OT. The binding reaction is terminated after 60 min., at 22° C., by rapid filtration through glass fiber filters using a Brandel, cell harvester (Biomedical Research and Development Laboratories,Inc., Gaithersburg, Md.). Competition experiments are conducted at equilibrium using 1.0 nM [^3 H]OT and varying the concentration of the displacing agents. The concentrations of agent displacing 50% of [^3 H]OT at its sites (IC50) are calculated by a computer assisted LUNDON-2 program (LUNDON SOFTWARE INC., Ohio, USA).

In experiment [2] the test system is Vasopressin V1. As to the kind of experiment: Vasopressin V1 Antagonist Activity in Conscious Rats (vasopressin vasopressor response). The format is in vivo, rat. To be noted: for Max % Inhibition: vasopressin vasopressor response. The protocol: Vasopressin V1 Antagonist Activity in Conscious Rats Conscious rats are restrained in a supine position with elastic tape. The area at the base of the tail is locally anesthetized by subcutaneous in filtration with 2% procaine (0.2 ml). Using aseptic technique the ventral caudal tail artery is isolated and a cannula made of PE 10 and 20 (heat-fused) tubing is passed into the lower abdominal aorta. The cannula is secured, heparinized (1000 i.u./cc), sealed and the wound closed with one or two stitches of Dexon 4-0. The caudal vein is also cannulated in the same manner for intravenous drug administration. The duration of the surgery is approximately 5 minutes. Additional local anesthesia (2% procaine or lidocaine) is provided as needed. The animals are placed in plastic restraining cages in an upright position. The cannula is attached to a Statham P23Db pressure transducer and pulsatile blood pressure is recorded. […] Percentage of antagonism by the compound is calculated using the pre-drug vasopressin vasopressor response as 100%. The results of this test on representative compounds of this invention in which the dose, the maximum % inhibition and the time in minutes, are shown in Table III.

Experiment [3] addresses T2, Vasopressin V1 receptor subtype in Human Platelet Membranes (Homo sapiens, UniProt P37288).
T2 construct: tissue Hudson Valley Blood Services, Westchester Medical Center, Valhalla, N.Y; host or cells: human platelets (frozen platelet rich plasma)
Briefly: Binding to Vasopressin V1 receptor subtype in Human Platelet Membranes. The protocol:
Radioligand Binding Experiments with Human Platelet Membranes
(a) Platelet Membrane Preparation
Frozen platelet rich plasma (PRP), (Platelet Source: Hudson Valley Blood Services, Westchester Medical Center, Valhalla, N.Y.) are thawed to room temperature. The tubes containing the PRP are centrifuged at 16,000×g for 10 min. at 4° C. and the supernatant fluid discarded. The platelets resuspended in an equal volume of 50.0 mM Tris.HCl, pH 7.5 containing 120 mM NaCl and 20.0 mM EDTA. The suspension is recentrifuged at 16,000× g for 10 min. This washing step is repeated one more time. The wash discarded and the lysed pellets homogenized in low ionic strength buffer of Tris.HCl, 5.0 mM, pH 7.5 containing 5.0 mM EDTA. The homogenate is centrifuged at 39,000× g for 10 min. The resulting pellet is resuspended in Tris.HCl buffer, 70.0 mM, pH 7.5 and recentrifuged at 39,000× g for 10 min. The final pellet is resuspended in 50.0 mM Tris.HCl buffer pH 7.4 containing 120 mM NaCl and 5.0 mM KCl to give 1.0-2.0 mg protein per ml of suspension.
(b) Binding to Vasopressin V1 receptor subtype in Human Platelet Membranes
In wells of a 96 well format microtiter plate, add 100 μl of 50.0 mM Tris.HCl buffer containing 0.2% BSA and a mixture of protease inhibitors (aprotinin, leupeptin etc.). Then add 20 μl of [^3 H]Ligand (Manning or Arg^8 Vasopressin), to give final concentrations ranging from 0.01 to 10.0 nM. Initiate the binding by adding 80.0 μl of platelet suspension (approx. 100 μg protein). Mix all reagents by pipetting the mixture up and down a few times. Non specific binding is measured in the presence of 1.0 µM of unlabeled ligand (Manning or Arg^8 Vasopressin). Let the mixture stand undisturbed at room temperature for ninety (90) min. Upon this time, rapidly filter off the incubate under vacuum suction over GF/B filters, using a Brandel Harvester. Determine the radioactivity caught on the filter disks by the addition of liquid scintillant and counting in a liquid scintillator.

In experiment [4] the test system is Vasopressin V2. Briefly: Vasopressin V2 Antagonist Activity in Conscious Hydrated Rats. The format is in vivo, rat. To be noted: 10 mg/kg orally, AVP 0.4 μg/kg i.p.; for Osmolality: urine. The protocol:
Two to four rats are used for each compound. One hour later, arginine vasopressin (AVP, antidiuretic hormore, ADH) dissolved in peanut oil is administered at 0.4 μg/kg intraperitoneally. Two rats in each test would not receive arginine vasopressin but only the vehicle (peanut oil) to serve as water-loading control. Twenty minutes later each rat is given 30 mL/kg of deionized water orally by gavage and is placed individually in a metabolic cage equipped with a funnel and a graduated glass cylinder to collect urine for four hours. Urine volume is measured and osmolality analyzed by use of a Fiske One-Ten osmometer (Fiske Assoc., Norwood, Mass., USA). Urinary sodium, potassium, and chloride are analyzed by use of ion-specific electrodes in a Beckman E3 (Electrolyte 3) Analyzer. In the following results, […] and decreased osmolality relative to AVP-control indicates activity.

Experiment [5] concerns the target T3, Human V2 Vasopressin Receptor (Homo sapiens, UniProt P30518).
T3 construct: expressed in transfected cells; host or cells: mouse fibroblast cell line LV-2
As to the kind of experiment: Binding to Membranes of Mouse Fibroblast Cell Line (LV-2) Transfected with the cDNA Expressing the Human V2 Vasopressin Receptor. To be noted: ** LV-2 cell membranes. The protocol:
(a) Membrane Preparation Flasks of 175 ml capacity, containing attached cells grown to confluence, are cleared of culture medium by aspiration. […] The content of all flasks is poured into a centrifuge tube and the cells pelleted at 300× g for 15 min. The Hank's based solution is aspirated off and the cells homogenized with a polytron at setting #6 for 10 sec in 10.0 mM Tris.HCl buffer, pH 7.4 containing 0.25M sucrose and 1.0 mM EDTA. The homogenate is centrifuged at 1500× g for 10 min to remove ghost membranes. The supernatant fluid is centrifuged at 100,000× g for 60 min to pellet the receptor protein. […] (b) Receptor Binding […] Non specific binding is assessed in the presence of 1.0 μM of unlabeled ligand, added in 20 μl volume. […] The radioactivity trapped on the filter disk by the ligand-receptor complex is assessed by liquid scintillation counting in a Packard LS Counter, with an efficiency of 65% for tritium. The data are analyzed for IC50 values by the LUNDON-2 program for competition (LUNDON SOFTWARE, Ohio).

The record followed here is patent publication US5521173A, “Tricyclic benzazepine vasopressin antagonists” (American Home Products Corporation, priority 1995, dated 1996).

T2 sequence (P37288 whole entry): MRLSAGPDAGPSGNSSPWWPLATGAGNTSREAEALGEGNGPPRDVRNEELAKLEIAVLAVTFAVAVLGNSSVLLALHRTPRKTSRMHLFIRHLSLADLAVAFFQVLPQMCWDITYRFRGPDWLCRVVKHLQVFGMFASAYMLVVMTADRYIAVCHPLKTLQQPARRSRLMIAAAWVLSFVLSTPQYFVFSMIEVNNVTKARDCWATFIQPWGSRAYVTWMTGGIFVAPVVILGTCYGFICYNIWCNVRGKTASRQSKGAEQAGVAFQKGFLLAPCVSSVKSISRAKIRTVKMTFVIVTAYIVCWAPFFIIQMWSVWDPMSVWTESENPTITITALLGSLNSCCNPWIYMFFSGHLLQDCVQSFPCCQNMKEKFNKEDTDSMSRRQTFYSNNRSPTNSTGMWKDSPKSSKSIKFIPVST
T3 sequence (P30518 whole entry): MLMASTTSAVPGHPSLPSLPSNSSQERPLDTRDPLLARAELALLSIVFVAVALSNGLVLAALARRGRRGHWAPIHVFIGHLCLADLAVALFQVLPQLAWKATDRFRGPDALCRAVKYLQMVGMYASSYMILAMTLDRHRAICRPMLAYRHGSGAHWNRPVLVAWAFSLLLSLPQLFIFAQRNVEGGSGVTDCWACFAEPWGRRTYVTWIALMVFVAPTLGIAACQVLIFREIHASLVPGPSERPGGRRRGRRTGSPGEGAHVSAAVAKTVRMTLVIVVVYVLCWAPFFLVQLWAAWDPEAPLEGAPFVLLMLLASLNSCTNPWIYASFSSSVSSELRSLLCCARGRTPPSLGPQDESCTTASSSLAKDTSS

As a reminder, the inhibition is the change of the read-out against control, counted positive when it falls. Broadly, the IC50 is the concentration that inhibits the measured activity by half. Read a high IC50 as lower potency. In experiment [1], `CN(C)Cc1ccc2n1Cc1ccccc1N(C(=O)c1ccc(-c3ccccc3)cc1)C2` [Example 20, 10-([1,1'-Biphenyl]-4-ylcarbonyl)-10,11-dihydro-N,N-dimethyl-5H-pyrrolo[2,1-c][1,4]benzodiazepine-3-methanamine] yielded an inhibition at 10 µM of 100% and an IC50 of 110 nM. Also, in experiment [2] (10 mg/kg iv), the “Time (of maximum % inhibition)” value worked out at 240 min and the “Max % Inhibition” value is reported as 61%. In experiment [3], this compound yielded a 50% inhibitory concentration (IC50) of 13 nM. For the same compound, in experiment [4], the “Urine Volume” value came out at 3.5 ml/4 hrs and the Osmolality is 1650 mOsm/kg.

In experiment [1], `Cc1ccc(Oc2ccc(C(=O)N3Cc4cccn4Cc4ccccc43)cc2)cc1` [Example 18, 10,11-Dihydro-10-[4-(4-methylphenoxy)benzoyl]-5H-pyrrolo[2,1-c][1,4]benzodiazepine] registered an inhibition at 10 µM of 99% and an IC50 of 120 nM. Moreover, in experiment [2] (30 mg/kg iv), the “Time (of maximum % inhibition)” value is recorded as 300 min and the “Max % Inhibition” value was 36%. This compound also yielded an IC50 in experiment [3] of 280 nM. In experiment [4], the “Urine Volume” value is on record as 5.3 ml/4 hrs and the Osmolality amounted to 919 mOsm/kg.

`CCCc1ccc(-c2ccc(C(=O)N3Cc4cccn4Cc4ccccc43)cc2)cc1` [Example 21, 10,11-Dihydro-10-[(4'-propyl[1,1'-biphenyl]-4-yl)carbonyl]-5H-pyrrolo[2,1-c][1,4]benzodiazepine] came in with an inhibition at 10 µM in experiment [1] of 68%. In experiment [5], this compound displayed an IC50 of 58 nM. For the same compound, the IC50 in experiment [3] is 12 nM. For the same compound, in experiment [4], the “Urine Volume” value came out at 4.5 ml/4 hrs and the Osmolality came to 1347 mOsm/kg.

Compound `O=C(c1ccc(-c2cccs2)nc1)N1Cc2cccn2Cc2ccccc21` [Example 22] yielded an inhibition at 10 µM in experiment [1] of 98%. The 50% inhibitory concentration (IC50) is 480 nM in experiment [1], 3600 nM in experiment [5] and 960 nM in experiment [3].

As to `Cc1ccccc1-c1ccc(C(=O)N2Cc3cccn3Cc3ccccc32)cc1` [Example 5, 10,11-Dihydro-10-[4-(2-methylphenyl)benzoyl]-5H-pyrrolo[2,1-c][1,4]benzodiazepine], the IC50 worked out at 2000 nM in experiment [5] and 88 nM in experiment [3]. Moreover, the “Urine Volume” value in experiment [4] stood at 7.8 ml/4 hrs. Also, the Osmolality in experiment [4] was determined as 992 mOsm/kg.

Compound `Cc1ccc(S(=O)(=O)c2ccc(C(=O)N3Cc4cccn4Cc4ccccc43)cc2)cc1` [Example 13, 10,11-Dihydro-10-[4-[(4-methylphenyl)sulfonyl]benzoyl]-5H-pyrrolo[2,1-c][1,4]benzodiazepine] registered an inhibition at 10 µM in experiment [1] of 67%. For the same compound, the IC50 in experiment [3] was 21 nM. In experiment [4], the “Urine Volume” value is on record as 5.5 ml/4 hrs and the Osmolality came to 1380 mOsm/kg.

Regarding `CN(C)Cc1ccc2n1Cc1ccccc1N(C(=O)c1ccc(-c3cccs3)cc1)C2` [Example 6, 10,11-Dihydro-3-[(dimethylamino)methyl]-10-[4-(2-thienyl)benzoyl]-5H-pyrrolo[2,1-c][1,4]benzodiazepine], at 10 µM the inhibition in experiment [1] was 100%. Also, the values for the IC50 in experiment [1], in experiment [5] and in experiment [3] were 330 nM, 15000 nM and 63 nM, respectively.

On to `O=C(c1ccc(-c2cccs2)cc1)N1Cc2cccn2Cc2ccccc21` [drawing 73], for which the values for the IC50 in experiment [5] and in experiment [3] were 510 nM and 13 nM, respectively.

In experiment [1], `O=C(c1ccc(-c2ccccc2[N+](=O)[O-])cc1)N1Cc2cccn2Cc2ccccc21` [Example 2, 10,11-Dihydro-10-[4-(2-nitrophenyl)benzoyl]-5H-pyrrolo[2,1-c][1,4]benzodiazepine] showed an inhibition at 10 µM of 100% and an IC50 of 49 ± 3 nM. The same compound registered an IC50 in experiment [5] of 96 nM. Further, in experiment [3], the concentration for half-maximal inhibition (IC50) turned out to be 64 nM. Moreover, in experiment [4], the “Urine Volume” value stood at 5.5 ml/4 hrs and the Osmolality is recorded as 1257 mOsm/kg.
